From US5681823A, “P^1, P^4 -dithio-P^2 -P^3 -monochloromethylene 5', 5'"-diadenosine P^1, P^4 -tetraphosphate as antithrombotic agent” (PRP Inc., priority 1996, dated 1997)
pKi: −log10 of the molar value. Read-outs that look alike come from different tables or passages of the source.

How the values were obtained:
[1] = tested on: fibrinogen receptor (GPIIb/IIIa); experiment: Fibrinogen binding sites on ADP-activated platelets (FITC-anti-fgn, flow cytometer); type: cell-based, human; conditions: for % binding (fibrinogen bound on ADP-activated platelets): 5 μM ADP
Description: Platelet responses to the agonists include in addition to aggregation a) release reaction, b) fibrinogen receptor silos (GPIIb/IIIa) and, c) platelet factor 3 activation. The effects of thio-CHCl-AP4 A and the reference agent (CHCl-AP4 A, compound E10 of Zamecnik '550) were tested on each of these responses.
Platelet surface receptors for fibrinogen are known to be increased by activation. The effects of thio-CHCl-AP4 A and CHCl-AP4 A on fibrinogen binding sites of activated platelets were assayed by means of Fluorescein isothiocyanate conjugated antifibrinogen antibody (FITC-anti-fgn) techniques in a flow cytometer (FACS, Becton-Dickinson). PRP was used at 1:20 final dilution. Platelets were activated by ADP in the presence or absence of the agents at 22° C. for 5 min. After incubation of activated platelets with FITC-Anti-Fgn at 22° C. for 10 min., 0.5 ml of 0.2% formyl saline (0.2% formaldehyde in 0.9% NaCl) was added to inhibit further activation. Samples included platelets that were a) unstimulated; b) stimulated with 5 μM ADP; c) exposed to agents (CHCl-AP4 A or thio-CHCl-AP4 A) for 5 minutes before ADP stimulation.

[2] = Molecular stability in whole blood (HPLC of blood extracts); type: in vitro ADME, human; conditions: for Main Peak / Total / X1 (second peak) / X2 (second peak): 250 μM agent, mean of two
Description: To test the molecular stability of the agents, blood was incubated with each agent at […] for 4 hours. Samplings at the indicated incubation times were extracted and CHC -AP4 A or thio-CHCl-AP4 A were assayed in an HPLC (Waters 600E pump and controller) with quartenary amine anion exchange column (Whatman Partisil 10) and analysed (Beckman System Gold). The retention times for CHCl-AP4 A and thio-CHCl-AP4 A were 3.39 and 5.95, respectively. Peak areas were integrated and used to construct a standard curve for a concentration range (1, 2, 4, 6, 8 and 10 μM). Both CHCl-AP4 A and thio-CHCl-AP4 A were pure, as observed by a single peak on HPLC, and by a linear relationship between the concentration of the agent and HPLC peak areas. Normal human blood anticoagulated with 0.38% sodium citrate was incubated in the presence of250 μM CHCl-AP4 A or thio-CHCl-AP4 A at […] for 4 hours. Blood samples were extracted with 3% perchloric acid and neutralized with K2 CO3. The extracts were kept at -80° C. until an assay using an HPLC. The values in Table 9 represent a mean of two experiments and are expressed in nmol/ml blood. […] An estimated quantity of CHCl-AP4 A major peak indicated a slow degradation showing a reduction of 30% after 4 hours incubation. At least 80% of degradation product, possibly chloromethylene monoadenosine triphosphate (AppCp) is associated with the second peak (X1). […] The second peak of the blood extract with thio-CHCl-AP4 A may be an isomer (X2), e.g., monothio compound (Aps pCppA or AppCpps A). It was not detected by HPLC of the pure compound, but registered a small portion (<10%) in the blood extraction at time 0 and about 20% of the major peak thereafter.

platelet cAMP level = experiment: Level of intracellular platelet cAMP (etheno-cAMP, HPLC); type: cell-based, human; conditions: for platelet cAMP level: 37° C., 5 min, control 31.6; for effect on the platelet cAMP level: in words
Description: Unless otherwise provided below, the experimental procedures were performed according to the procedures provided in U.S. Pat. No. 5,049.550 (Zamecnik '550), the entire contents of which are incorporated herein by reference. Some alternative procedures (e.g., release reaction, PF3 assays) and a number of additional studies also are provided (e.g., cytoplasmic calcium mobilization, fibrinogen binding site, agonists other than ADP, platelet cAMP and distribution of CHCl-AP4 A into blood components). Blood was collected in a 0.1 volume of 3.8% sodium citrate from healthy human volunteers who had abstained from antiplatelet agents for at least 10 days. Platelet rich plasma (PRP) was separated by a gradual centrifugation and adjusted to 3.3×10^8 platelets per ml plasma. PRP has been utilized in the Examples unless otherwise stated.
The inhibitory effect of cAMP on platelet aggregation has been known as a counteraction of calcium ion mobilization. Accordingly, the inhibitory effects of the agents with respect to a cAMP mediated mechanism was tested. PRP was incubated with saline (control), agents (at 20 μM and 100 μM), or forskolin (10 μM) at 37° C. for 5 min. After incubation, extracts were made using Ba(OH)2 and ZnSO4. Cyclic AMP in the extracts was converted into the etheno-cAMP derivative, and the levels were estimated by HPLC using a fluorescence detector (W. Wojcik et al., J. Cyclic Nucleotide Res. 7:27-35 (1981)). The level of cAMP in an unknown extract was determined by extrapolation from a standard graph. A linear relationship between the cAMP level in the extracted samples and fluorescence detection was observed. […] However, this increase may not be a specific effect. Although adenosine contamination in the tested AP4 A agents was not detected, it is possible that either cellular adenosine nucleotide metabolic products or contaminated adenosine in the tested agents may be responsible for the elevated cAMP level.

Platelets = experiment: Distribution of ^125 I-labeled CHCl-AP4 A into blood cell fractions: platelets; type: binding, human
Description: (§1) There are, however, a variety of purinoceptors on other cell types. AP4 A analogues may bind not only to platelets but also to the erythrocytes and leukocytes when whole blood is treated with the agents. […] Platelets were separated by a gradual centrifugation, the packed red cells with buffy coats (leukocytes) were mixed, and fractionated by means of histopaque gradient separation (A. Boyum, Scand J. Clin. Lab. Invest. 21(suppl 97):77 (1968)). The cell fractions were washed twice and final suspensions were counted for cell number and the radioactivity. Percent distribution was calculated based on the CBC data of whole blood. Binding sites are expressed in the values per cells.

Erythrocytes = experiment: Distribution of ^125 I-labeled CHCl-AP4 A into blood cell fractions: erythrocytes; type: binding, human
Description: as §1

[3] = tested on: ADP-induced platelet aggregation; conditions: reference agent, kinetic study demonstrated previously (PNAS 1992); read-out: inhibition constant (Ki); cited from earlier work
[4] = 23 μM, 22° C., 30 minutes, mean of two

SMILES	% binding (fibrinogen bound on ADP-activated platelets) ([1]; 2.5 μM agent)	% binding (fibrinogen bound on ADP-activated platelets) ([1]; 5.0 μM agent)	Main Peak ([2]; 0 min)	Total ([2]; 0 min)	Main Peak ([2]; 60 min)	Total ([2]; 60 min)	Main Peak ([2]; 120 min)	Total ([2]; 120 min)	Main Peak ([2]; 240 min)	Total ([2]; 240 min)	platelet cAMP level (platelet cAMP level; 20 μM agent)	effect on the platelet cAMP level (platelet cAMP level; 20 μM)	platelet cAMP level (platelet cAMP level; 100 μM agent)	effect on the platelet cAMP level (platelet cAMP level; 100 μM)	also measured
Nc1ncnc2c1ncn2[C@@H]1O[C@H](COP(=O)(O)OP(=O)(O)C(Cl)P(=O)(O)OP(=O)(O)OC[C@H]2O[C@@H](n3cnc4c(N)ncnc43)[C@H](O)[C@@H]2O)[C@@H](O)[C@H]1O (stereo partly shown) [CHCl-AP4 A]	70.9 % binding	41.3 % binding	249.2 nmol/ml blood	249.2 nmol/ml blood	249.0 nmol/ml blood	274.8 nmol/ml blood	222.0 nmol/ml blood	258.6 nmol/ml blood	173.2 nmol/ml blood	236.3 nmol/ml blood	30.6 nM	no effect	56.7 nM	moderate increase	% binding (fibrinogen bound on ADP-activated platelets) ([1]; 7.5 μM agent): 36.1 % binding; % binding (fibrinogen bound on ADP-activated platelets) ([1]; 10 μM agent): 23.8 % binding; X1 (second peak) ([2]; 0 min): trace; X1 (second peak) ([2]; 60 min): 25.8 nmol/ml blood; X1 (second peak) ([2]; 120 min): 36.6 nmol/ml blood; X1 (second peak) ([2]; 240 min): 63.3 nmol/ml blood; recovery at 1 h, 250 µM ([2]; human, blood, 60 minutes, read-out: Total extraction efficiency): 110%; metabolised at 4 h, 250 µM ([2]; human, blood, after 4 hours incubation, read-out: reduction of major peak (slow degradation)): 30%; degradation product associated with the second peak (X1) ([2]; whole blood): At least 80%; Distribution (%) (Platelets; [4]): 0.55%; Binding Sites (Platelets; gross estimation per cell): 3.08 × 10^5 per cells; binding sites per surface area, relative value (Platelets; relative, platelets): 100; Distribution (%) (Erythrocytes; [4]): 2.09%; Binding Sites (Erythrocytes; gross estimation per cell): 5.98 × 10^4 per cells; binding sites per surface area, relative value (Erythrocytes; relative, erythrocytes): 1; pKi [3]: 5.96
Nc1ncnc2c1ncn2[C@@H]1O[C@H](COP(O)(=S)OP(=O)(O)C(Cl)P(=O)(O)OP(O)(=S)OC[C@H]2O[C@@H](n3cnc4c(N)ncnc43)[C@H](O)[C@@H]2O)[C@@H](O)[C@H]1O (stereo partly shown) [Thio-CHCl-AP4 A, P^1, P^4 -dithio -P^2 -P^3 monochloromethylene 5', 5'" diadenosine P^1, P^4 -tetraphosphate]	9.9 % binding	5.3 % binding	157.7 nmol/ml blood	172.0 nmol/ml blood	172.3 nmol/ml blood	205.9 nmol/ml blood	180.0 nmol/ml blood	211.4 nmol/ml blood	173.7 nmol/ml blood	202.0 nmol/ml blood	28.6 nM	no effect	54.4 nM	moderate increase	inhibition of fibrinogen bound on ADP-activated platelets ([1]; compared to CHCl-AP4 A, in words): inhibited preferentially; X2 (second peak) ([2]; 0 min): 14.3 nmol/ml blood; X2 (second peak) ([2]; 60 min): 33.6 nmol/ml blood; X2 (second peak) ([2]; 120 min): 31.4 nmol/ml blood; X2 (second peak) ([2]; 240 min): 38.3 nmol/ml blood; second peak (X2), % of the major peak ([2]; after time 0): about 20 % of the major peak; stability in blood ([2]; at least 4 hours at 37° C., in words): very stable in blood for at least 4 hours at 37 °C; recovery at 2 h, 250 µM ([2]; human, blood, 120 minutes, read-out: Total extraction efficiency): 85%; recovery at 1 h, 250 µM ([2]; human, blood, samples after 60 minutes, read-out: Extraction efficiency): 81 to 85%; recovery at 0 h, 250 µM ([2]; human, blood, time 0, read-out: Extraction efficiency): 69%; second peak (X2) portion in the blood extraction ([2]; time 0): < 10%
